# Experimental data: patent US8785488B2 (Exelixis Patent Company LLC, priority 2009, dated 2014)
# Columns and labels:
# h-TGR5 = target: T1, h-TGR5 (Homo sapiens, UniProt Q8TDU6); assay: TGR5 cAMP Assay using Cisbio cAMP Dynamic2 htrf kit (hTGR5CRE-luc HEK 293 cells); format: cell-based; details: h-TGR5 cAMP EC50, Table 1; read-out: cAMP (EC50)
# T1 construct: expressed in transfected cells
# T1 sequence (Q8TDU6 1-330): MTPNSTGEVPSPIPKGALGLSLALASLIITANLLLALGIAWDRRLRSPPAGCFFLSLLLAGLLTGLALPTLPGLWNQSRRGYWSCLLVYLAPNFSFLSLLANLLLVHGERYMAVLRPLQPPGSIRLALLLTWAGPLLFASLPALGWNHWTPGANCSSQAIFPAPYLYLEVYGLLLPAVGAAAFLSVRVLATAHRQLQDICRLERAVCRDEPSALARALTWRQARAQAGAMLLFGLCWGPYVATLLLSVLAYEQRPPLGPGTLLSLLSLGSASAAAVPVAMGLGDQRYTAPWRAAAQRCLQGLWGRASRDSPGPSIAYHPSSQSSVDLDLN
# Outline: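 […], 4000 hTGR5CRE-luc HEK 293 cells per well, with 0.5 mM IBMX and d2-cAMP, were incubated 30 min at room temperature with compounds in 8-point half-log series, in quadruplicate.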
# human TGR5 (h-TGR5) = target: T2, human TGR5 (h-TGR5) (Homo sapiens, UniProt Q8TDU6); assay: TGR5/CRE-Luciferiase Assay (HEK 293 hTGR5/CRE-Luc cells); format: cell-based; details: h-TGR5 CRE-Luc EC50, Table 1; read-out: CRE-Luc (EC50)
# T2 construct: expressed in transfected cells
# T2 sequence (Q8TDU6 1-330): T1 sequence (Q8TDU6 1-330)
# Outline: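 HEK293 cells stably carrying hTGR5 and a CRE-luciferase reporter were exposed to serially diluted compounds (diluted in DMEM with 5% DMSO) for 6 h. Cells were then lysed in luciferase buffer, luminescence was read, and EC50 values were derived from dose-response curves.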
Compound,EC50 (h-TGR5) [nM],EC50 (human TGR5 (h-TGR5)) [nM]
COc1cc(C(C)(C)c2cnc(SCc3ccc(S(=O)(=O)NC(=O)N4CCC(O)C4)cc3Cl)n2-c2ccc(F)cc2)ccc1Cl (stereo not shown) [N-{[3-chloro-4-({[5-{1-[4-chloro-3-(methyloxy)phenyl]-1-methylethyl}-1-(4-fluorophenyl)-1H-imidazol-2-yl]thio}methyl)phenyl]sulfonyl}-3-hydroxypyrrolidine-1-carboxamide],< 100,1000 to 10000
COc1cc(C(C)(C)c2cnc(SCc3ccc(S(=O)(=O)NC(=O)N4CCCC4)cc3Cl)n2-c2ccc(F)cc2)ccc1Cl [N-{[3-chloro-4-({[5-{1-[4-chloro-3-(methyloxy)phenyl]-1-methylethyl}-1-(4-fluorophenyl)-1H-imidazol-2-yl]thio}methyl)phenyl]sulfonyl}pyrrolidine-1-carboxamide],< 100,100 to 1000
COc1cc(C(C)(C)c2cnc(SCc3ccc(C(=O)NCCC(=O)O)cc3F)n2-c2ccc(F)cc2)ccc1Cl [N-{[4-({[5-{1-[4-chloro-3-(methyloxy)phenyl]-1-methylethyl}-1-(4-fluorophenyl)-1H-imidazol-2-yl]thio}methyl)-3-fluorophenyl]carbonyl}-beta-alanine],< 100,< 100
"COc1ccc(C(C)(C)c2cnc(CN(C)c3c(F)cccc3Cl)n2-c2ccc(F)cc2)cc1OC [N-{[5-{1-[3,4-bis(methyloxy)phenyl]-1-methylethyl}-1-(4-fluorophenyl)-1H-imidazol-2-yl]methyl}-2-chloro-6-fluoro-N-methylaniline]",< 100,< 100
"COc1ccc(C(C)(C)c2cnc(CNc3c(F)cccc3Cl)n2-c2ccc(F)cc2)cc1OC [N-{[5-{1-[3,4-bis(methyloxy)phenyl]-1-methylethyl}-1-(4-fluorophenyl)-1H-imidazol-2-yl]methyl}-2-chloro-6-fluoroaniline]",100 to 1000,< 100
"CC(C)(c1ccc(Cl)c(Cl)c1)c1cnc(SCc2ccc(F)cc2Cl)n1-c1ccc(F)c(CO)c1 [[5-(2-{[(2-chloro-4-fluorophenyl)methyl]thio}-5-[1-(3,4-dichlorophenyl)-1-methylethyl]-1H-imidazol-1-yl)-2-fluorophenyl]methanol]",100 to 1000,100 to 1000
"CC(C)(c1ccc(Cl)c(Cl)c1)c1cnc(SCc2c(F)cc(C(=O)NCS(=O)(=O)O)cc2F)n1-c1ccc(F)c(Cl)c1 [[({4-[({1-(3-chloro-4-fluorophenyl)-5-[1-(3,4-dichlorophenyl)-1-methylethyl]-1H-imidazol-2-yl}thio)methyl]-3,5-difluorophenyl}carbonyl)amino]methanesulfonic acid]",< 100,< 100
"COc1cc(-n2c(C(C)(C)c3ccc(Cl)c(Cl)c3)cnc2SCc2c(F)cc(C(=O)NCS(=O)(=O)O)cc2F)ccc1F [[({4-[({5-[1-(3,4-dichlorophenyl)-1-methylethyl]-1-[4-fluoro-3-(methyloxy)phenyl]-1H-imidazol-2-yl}thio)methyl]-3,5-difIuorophenyl}carbonyl)amino]methanesulfonic acid]",< 100,< 100
"CCOC(=O)NS(=O)(=O)c1ccc(CSc2ncc(C(C)(C)c3ccc(Cl)c(Cl)c3)n2-c2ccc(F)c(OC)c2)c(Cl)c1 [ethyl ({3-chloro-4-[({5-[1-(3,4-dichlorophenyl)-1-methylethyl]-1-[4-fluoro-3-(methyloxy)phenyl]-1H-imidazol-2-yl}thio)methyl]phenyl}sulfonyl)carbamate]",100 to 1000,100 to 1000
N-2-({[3-chloro-4-({[5-{1-[4-chloro-3- (methyloxy)phenyl]-1-methylethyl}-1-(4- fluorophenyl)-1H-imidazol-2-yl]thio}methyl)- 5-fluorophenyl]amino}carbonyl)-L-arginine,< 100,< 100

# Results, then the compound that gave them:
EC50 (h-TGR5) [nM],EC50 (human TGR5 (h-TGR5)) [nM],Compound
< 100,< 100,CCOC(=O)NS(=O)(=O)c1ccc(CSc2ncc(C(C)(C)c3ccc(S(N)(=O)=O)c(Cl)c3)n2-c2ccc(F)c(OC)c2)c(Cl)c1 [ethyl [(4-{[(5-{1-[4-(aminosulfonyl)-3-chlorophenyl]-1-methylethyl}-1-[4-fluoro-3-(methyloxy)phenyl]-1H-imidazol-2-yl)thio]methyl}-3-chlorophenyl)sulfonyl]carbamate]
< 100,< 100,CCOC(=O)NS(=O)(=O)c1ccc(CSc2ncc(C(C)(C)c3ccc(OC)c(Cl)c3)n2-c2ccc(F)cc2)c(Cl)c1 [ethyl {[3-chloro-4-({[5-{1-[3-chloro-4-(methyloxy)phenyl]-1-methylethyl}-1-(4-fluorophenyl)-1H-imidazol-2-yl]thio}methyl)phenyl]sulfonyl}carbamate]
< 100,< 100,CCOC(=O)NS(=O)(=O)c1ccc(CSc2ncc(C(C)(C)c3ccc(Cl)c(OC)c3)n2-c2ccc(F)cc2)c(Cl)c1 [ethyl {[3-chloro-4-({[5-{1-[4-chloro-3-(methyloxy)phenyl]-1-methylethyl}-1-(4-fluorophenyl)-1H-imidazol-2-yl]thio}methyl)phenyl]sulfonyl}carbamate]
< 100,100 to 1000,CCOC(=O)NS(=O)(=O)c1ccc(CSc2ncc(C(C)(C)c3ccc(S(N)(=O)=O)c(Cl)c3)n2-c2ccc(F)cc2)c(Cl)c1 [ethyl {[4-({[5-{1-[4-(aminosulfonyl)-3-chlorophenyl]-1-methylethyl}-1-(4-fluorophenyl)-1H-imidazol-2-yl]thio}methyl)-3-chlorophenyl]sulfonyl}carbamate]
< 100,< 100,CCOC(=O)NS(=O)(=O)c1ccc(CSc2ncc(C(C)(C)c3ccc(Cl)c(OC)c3)n2-c2ccc(F)cc2)cc1F [ethyl {[4-({[5-{1-[4-chloro-3-(methyloxy)phenyl]-1-methylethyl}-1-(4-fluorophenyl)-1H-imidazol-2-yl]thio}methyl)-2-fluorophenyl]sulfonyl}carbamate]
< 100,< 100,CCOC(=O)NS(=O)(=O)c1ccc(CSc2ncc(C(C)(C)c3ccc(Cl)c(OC)c3)n2-c2ccc(F)cc2)c(F)c1 [ethyl {[4-({[5-{1-[4-chloro-3-(methyloxy)phenyl]-1-methylethyl}-1-(4-fluorophenyl)-1H-imidazol-2-yl]thio}methyl)-3-fluorophenyl]sulfonyl}carbamate]
100 to 1000,100 to 1000,"COC(=O)c1cc(CSc2ncc(C(C)(C)c3ccc(Cl)c(Cl)c3)n2-c2ccc(F)c(OC)c2)ccc1C#CCNC(=N)N [methyl 2-(3-{[amino(imino)methyl]amino}prop-1-yn-1-yl)-5-[({5-[1-(3,4-dichlorophenyl)-1-methylethyl]-1-[4-fluoro-3-(methyloxy)phenyl]-1H-imidazol-2-yl}thio)methyl]benzoate]"
